Measurements: the Biogen ADME set (Fang et al. 2023)
In brackets after ≈: the same amount, converted by molar mass.

Settings: for aqueous solubility: pH 6.8

Compound	MDR1-MDCK efflux ratio	intrinsic clearance, human liver microsomes [mL/min/kg]	intrinsic clearance, rat liver microsomes [mL/min/kg]	aqueous solubility [µg/mL]	fraction unbound, human plasma	fraction unbound, rat plasma
O=c1c2sccc2nc2n1CCN(Cc1cc(F)ccc1F)CC2	0.463	121	2180	–	–	–
COc1ccc(-n2cc3c(c2-c2ccccc2Br)c(=O)n(C)c(=O)n3C)cc1	0.946	37.5	521	4.92 (≈ 11.2 µM)	–	–
Cn1c(=O)oc2cc(NC(C3CC3)C3CC3)ccc21	–	13.6	186	–	–	–
Nc1ncnc2c1ncn2[C@@H]1O[C@H](CO)[C@@H](O)[C@@H]1O	–	–	–	54.7 (≈ 205 µM)	–	–
O=S(=O)(Nc1cccc(-c2nc3ccccc3[nH]2)c1)c1ccc(Cl)cc1	10.7	20	2940	4.89 (≈ 12.7 µM)	–	–
CCCCOc1nc(N)c2c(n1)N(Cc1cccc(CN3CCCC3)c1)CC(=O)N2	5.49	113	1870	–	–	–
c1nc(NC2CCN(C3CC3)CC2)c2sccc2n1	1.24	17.4	80.6	56.2 (≈ 205 µM)	–	–
Clc1snnc1CN1CCCN(c2nc3ccccc3[nH]2)CC1	13.1	105	1440	28.2 (≈ 80.7 µM)	–	–
Cc1cc(N2CCN(CC3CCN(C(=O)CC(C)C)CC3)CC2)n[nH]1	9.48	7.34	≤ 10.7	–	–	–
CCc1sc(N)nc1-c1ccc(OC)cc1	0.563	185	491	–	–	–
O=C1CSc2ccc(C(=O)Nc3cc(C4CC4)n[nH]3)cc2N1	–	8.23	241	4.31 (≈ 13.7 µM)	–	–
Cc1ccc(Cn2nc(C(=O)N[C@@H]3C(C)(C)[C@@H]4CC[C@@]3(C)C4)cc2-c2ccc(Cl)c(C)c2)cc1	0.636	181	676	1.29 (≈ 2.71 µM)	–	–
NC1CCCC(C(=O)N2CCC(c3c[nH]c4ncccc34)CC2)C1 (stereo not given)	1.5	≤ 4.74	–	–	0.566	–
Cc1cc(C)n(C(=O)CCCC(=O)n2nc(C)cc2C)n1	–	609	2340	–	–	–
NCCN1CCN(C/C=C/C(=O)N2CCC[C@@H](n3nc(-c4ccc(Oc5ccccc5)cc4)c4c(N)ncnc43)C2)CC1	–	9.07	49.8	30.2 (≈ 51.9 µM)	0.0501	0.0486
COc1ccc(Cc2nnn[nH]2)cc1F	–	≤ 4.74	≤ 10.7	–	–	–
O=C1Nc2ccccc2O[C@H]2C[C@@H]1N(Cc1cccnc1)C2	17.7	12.7	281	94.3 (≈ 319 µM)	–	–
COC1CCN(C(=O)Nc2cc(C(F)(F)F)cc(C(F)(F)F)c2)CC1	0.476	60	158	71.4 (≈ 193 µM)	–	–
Cn1c(=O)c2c(nc3n2CCN3Cc2c(F)cccc2Cl)n(C)c1=O	1.27	11.9	146	5.17 (≈ 14.2 µM)	–	–
CC(=O)N1CCC(c2ccc(C(=O)O)cn2)CC1	–	≤ 4.74	≤ 10.7	50.6 (≈ 204 µM)	–	–
C[C@H]1NC(=O)N(CCc2nc(C(F)(F)F)cs2)C1=O	1.6	5.83	24.8	–	–	–
O=C(O)c1c(O)c(Cc2ccc(Cl)cc2)nc2c3c(ccc12)CCCC3	–	–	–	0.79 (≈ 2.15 µM)	–	–
CCCCCCCC/C(=C\CCCCCCCC(=O)O)[N+](=O)[O-]	–	42.9	84.9	12.7 (≈ 38.8 µM)	–	–

Next, values leading:

MDR1-MDCK efflux ratio	intrinsic clearance, human liver microsomes [mL/min/kg]	intrinsic clearance, rat liver microsomes [mL/min/kg]	aqueous solubility [µg/mL]	fraction unbound, human plasma	fraction unbound, rat plasma	Compound
21.8	16.9	147	24 (≈ 69.4 µM)	–	–	CSCCc1nc(-c2cc(C)nc3cc(F)ccc23)n(CCO)n1
–	≤ 4.74	87.1	–	–	–	CC(C)NC(=O)CN(C)c1ccc(Cl)c(C#N)n1
–	–	–	23.1 (≈ 98.4 µM)	–	–	CN1CC(=O)N(CCOc2ccccc2)C1=O
0.8	13	141	30.4 (≈ 119 µM)	–	–	Cc1cccc(C(=O)N(C)CCc2cnccn2)c1
1.25	32	111	65.8 (≈ 166 µM)	–	–	CN(C)C(=O)c1sc2nc(C3(C)CCN(c4ncccn4)CC3)ccc2c1N
1.86	555	2330	–	–	–	Cc1cccc([C@H]2CN(C(=O)C3CCCC3)[C@@H]3CCN(CC4CC4)C[C@H]23)c1
1.86	≤ 4.74	20.9	–	–	–	Cc1cnc(C(C)(C)NCC(=O)N(C)C)s1
16.3	≤ 4.74	≤ 10.7	38 (≈ 155 µM)	–	–	CC(C)C(=O)Nc1ncn(Cc2cccnc2)n1
0.643	19.9	483	–	–	–	Cc1ncn(Cc2noc(-c3ccccc3O)n2)c1C
12	26.5	445	–	–	–	Fc1cc(Br)ccc1CNCc1ccccn1
–	–	–	0.925 (≈ 4.45 µM)	–	–	Brc1cnc2ccccc2c1
–	≤ 4.74	62.6	26.5 (≈ 82.6 µM)	–	–	C[C@H](C(=O)Nc1nc2ccccc2[nH]1)N1Cc2ccccc2C1=O
–	127	530	8.81 (≈ 30.8 µM)	–	–	CCCCN(C)C(=O)c1cn(-c2ccc(C)c(C)c2)nn1
32.7	20.5	157	21.2 (≈ 43.2 µM)	–	–	C[C@@H](/C=C\C(F)(F)F)Oc1cc(-c2cc(-c3cc(CN(C)C)cs3)cnc2N)ccc1C(N)=O
10.2	9.92	42.6	–	0.104	0.124	CC(C)(O)CCn1cc2cc(NC(=O)c3cccc(C(F)(F)F)n3)c(C(C)(C)O)cc2n1
15.9	–	–	0.41 (≈ 1.06 µM)	–	–	Cc1cccc(OCC(=O)Nc2ccc3c(c2)C(=O)N(c2ccccc2)C3=O)c1
1.08	13.9	52.4	–	–	–	O=C(/C=C\n1cnc(-c2cc(C(F)(F)F)cc(C(F)(F)F)c2)n1)NNc1ccccn1
24.8	–	–	0.14 (≈ 0.296 µM)	–	–	CC(C)(O)CNc1nc(Nc2ccnc(C(F)(F)F)c2)nc(-c2cccc(C(F)(F)F)n2)n1

MDR1-MDCK efflux ratio	intrinsic clearance, human liver microsomes [mL/min/kg]	intrinsic clearance, rat liver microsomes [mL/min/kg]	aqueous solubility [µg/mL]	fraction unbound, human plasma	fraction unbound, rat plasma	Compound
2.71	≤ 4.74	63.5	–	–	–	COCc1noc(CNC(=O)N(C)[C@@H](C)c2ccccc2)n1
0.442	73.8	429	2.61 (≈ 8.6 µM)	–	–	COCc1ccccc1CNc1ccc2cc(C#N)ccc2n1
1.45	30.3	74.2	–	0.0278	0.0237	Cc1nc(Nc2nccs2)cc(C2CN(c3ncccn3)C2)n1
0.648	≤ 4.74	≤ 10.7	–	–	–	OCc1cnnn1-c1cncc(Cl)n1
0.667	44.8	200	59.6 (≈ 240 µM)	–	–	Cc1cccc(N(C)C(=O)COC2CCCC2)n1
7.87	11.5	150	41.5 (≈ 148 µM)	–	–	Cn1ccnc1CCNC(=O)c1cccc2cccnc12
0.671	148	1100	19.4 (≈ 49.1 µM)	–	–	O=C(CN1CCCN(c2ccc(C(F)(F)F)cn2)CC1)Nc1ccccc1F
5.72	12.8	322	42.3 (≈ 132 µM)	–	–	O=C(c1cccc(N2CCNC2=O)c1)N1CCc2ccccc2C1
–	≤ 4.74	≤ 10.7	–	–	–	O=C(NCc1ccc(CN2CCS(=O)(=O)CC2)cc1)c1ccon1
5.65	9.11	245	53.5 (≈ 148 µM)	–	–	O=C(NCCN1CCC(O)(c2cccc(F)c2)CC1)c1cccc(F)c1
10	58.6	461	37.6 (≈ 97.7 µM)	–	–	O=C(NCCNC(=O)c1cc(-c2ccccc2)nc2ccccc12)c1ccco1
0.698	15.4	274	10.5 (≈ 29.4 µM)	–	–	O=C(c1cc(-c2cccc(Cl)c2)on1)N1CCC(n2cccc2)CC1
4.93	133	349	–	–	–	C[C@H]1CC[C@H](n2c3cnccc3c3cnc(Nc4ccc5c(n4)CCN(C(=O)CO)C5)nc32)CC1
–	≤ 4.74	145	–	–	–	O=C1CCC(=O)N1Cc1nc(Cc2ccccc2)cs1
–	–	–	0.7 (≈ 2.28 µM)	–	–	Cc1cccc(N(C)C(=S)Oc2ccc3ccccc3c2)c1
0.734	≤ 4.74	44.1	–	0.221	0.203	COc1ccc(CCCN2CCN(c3cnn(C)c3)C(=O)C2)cc1F
–	≤ 4.74	59.4	29.5 (≈ 143 µM)	–	–	COc1cccc(NC(=O)C2CNC2)c1
